From US20190119298A1, “FUSED 3-PHENYLTETRAMIC ACID DERIVATIVES HAVING HERBICIDAL ACTION” (Bayer CropScience Aktiengesellschaft, priority 2016, published 2019)

Experiments:
Assay type in all cases: in vivo
Setaria viridis [1] = experiment: Pre-emergence herbicidal effect; conditions: 320 g/ha, scored visually after 3 weeks vs untreated controls, 100% = plants have died
Text: (§1) Seeds of monocotyledonous and dicotyledonous weed plants and crop plants are laid out in sandy loam soil in wood-fibre pots and covered with soil. The compounds of the invention, formulated in the form of wettable powders (WP) or as emulsion concentrates (EC), are then applied to the surface of the covering soil as aqueous suspension or emulsion at a water application rate equating to 600 to 800 L/ha with addition of 0.2% wetting agent. After the treatment, the pots are placed in a greenhouse and kept under good growth conditions for the trial plants. The damage to the test plants is scored visually after a test period of 3 weeks by comparison with untreated controls (herbicidal activity in percent (%): 100% activity=the plants have died, 0% activity=like control plants). SETVI: Setaria viridis

Alopecurus myosuroides [2] = experiment: Pre-emergence herbicidal effect; conditions: 320 g/ha, scored visually after 3 weeks vs untreated controls, 100% = plants have died
Text: as §1, with “ALOMY: Alopecurus myosuroides” for “SETVI: Setaria viridis”

Avena fatua [3] = experiment: Post-emergence herbicidal effect; conditions: one-leaf stage, 320 g/ha, assessed visually after about 3 weeks, 100% = plants have died
Protocol: (§2) AVEFA: Avena fatua Seeds of monocotyledonous and dicotyledonous weed and crop plants are laid out in sandy loam soil in wood-fibre pots, covered with soil and cultivated in a greenhouse under good growth conditions. 2 to 3 weeks after sowing, the test plants are treated at the one-leaf stage. The compounds of the invention, formulated in the form of wettable powders (WP) or as emulsion concentrates (EC), are then sprayed onto the green parts of the plants as aqueous suspension or emulsion at a water application rate equating to 600 to 800 L/ha with addition of 0.2% wetting agent. After the test plants have been left to stand in the greenhouse under optimal growth conditions for about 3 weeks, the action of the preparations is assessed visually in comparison to untreated controls (herbicidal action in percent (%): 100% activity=the plants have died, 0% activity=like control plants).

Setaria viridis [4] = experiment: Post-emergence herbicidal effect; conditions: one-leaf stage, 320 g/ha, assessed visually after about 3 weeks, 100% = plants have died
Protocol: as §2, with “SETVI: Setaria viridis” for “AVEFA: Avena fatua”

Lolium multiflorum [5] = experiment: Pre-emergence herbicidal effect; conditions: 320 g/ha, scored visually after 3 weeks vs untreated controls, 100% = plants have died
Text: as §1, with “LOLMU: Lolium multiflorum” for “SETVI: Setaria viridis”

Echinochloa crus-galli [6] = experiment: Post-emergence herbicidal effect; conditions: one-leaf stage, 320 g/ha, assessed visually after about 3 weeks, 100% = plants have died
Protocol: as §2, with “ECHCG: Echinochloa crus-galli” for “AVEFA: Avena fatua”

Avena fatua [7] = experiment: Pre-emergence herbicidal effect; conditions: 320 g/ha, scored visually after 3 weeks vs untreated controls, 100% = plants have died
Text: as §1, with “AVEFA: Avena fatua” for “SETVI: Setaria viridis”

Lolium multiflorum [8] = experiment: Post-emergence herbicidal effect; conditions: one-leaf stage, 320 g/ha, assessed visually after about 3 weeks, 100% = plants have died
Protocol: as §2, with “LOLMU: Lolium multiflorum” for “AVEFA: Avena fatua”

Alopecurus myosuroides [9] = experiment: Post-emergence herbicidal effect; conditions: one-leaf stage, 320 g/ha, assessed visually after about 3 weeks, 100% = plants have died
Protocol: as §2, with “ALOMY: Alopecurus myosuroides” for “AVEFA: Avena fatua”

Echinochloa crus-galli [10] = experiment: Pre-emergence herbicidal effect; conditions: 320 g/ha, scored visually after 3 weeks vs untreated controls, 100% = plants have died
Text: as §1, with “ECHCG: Echinochloa crus-galli” for “SETVI: Setaria viridis”

CCc1cc(C)cc(CC)c1C1=C(OC(=O)OC)C2CCOCCN2C1=O (stereo not shown) [Example Ib-1-1, 8-(2,6-Diethyl-4-methylphenyl)-7-oxo-1,2,4,5,7,9a-hexahydropyrrolo[1,2-d][1,4]oxazepin-9-yl methyl carbonate]
100%: Pre-emergence action SETVI (herbicidal activity in percent) (Setaria viridis [1]) | Pre-emergence action ALOMY (herbicidal activity in percent) (Alopecurus myosuroides [2]) | Post-emergence effectiveness AVEFA (herbicidal action in percent) (Avena fatua [3]) | Post-emergence effectiveness SETVI (herbicidal action in percent) (Setaria viridis [4]) | Pre-emergence action LOLMU (herbicidal activity in percent) (Lolium multiflorum [5]) | Post-emergence effectiveness ECHCG (herbicidal action in percent) (Echinochloa crus-galli [6]) | Pre-emergence action AVEFA (herbicidal activity in percent) (Avena fatua [7]) | Post-emergence effectiveness LOLMU (herbicidal action in percent) (Lolium multiflorum [8]) | Post-emergence effectiveness ALOMY (herbicidal action in percent) (Alopecurus myosuroides [9]) | Pre-emergence action ECHCG (herbicidal activity in percent) (Echinochloa crus-galli [10])

CCc1cc(Cl)cc(OC)c1C1=C(OC(=O)OC)C2CCOCCN2C1=O (stereo not shown) [Ib-1-16]
100%: Pre-emergence action SETVI (herbicidal activity in percent) (Setaria viridis [1]) | Pre-emergence action ALOMY (herbicidal activity in percent) (Alopecurus myosuroides [2]) | Post-emergence effectiveness AVEFA (herbicidal action in percent) (Avena fatua [3]) | Post-emergence effectiveness SETVI (herbicidal action in percent) (Setaria viridis [4]) | Pre-emergence action LOLMU (herbicidal activity in percent) (Lolium multiflorum [5]) | Post-emergence effectiveness ECHCG (herbicidal action in percent) (Echinochloa crus-galli [6]) | Pre-emergence action AVEFA (herbicidal activity in percent) (Avena fatua [7]) | Post-emergence effectiveness LOLMU (herbicidal action in percent) (Lolium multiflorum [8]) | Post-emergence effectiveness ALOMY (herbicidal action in percent) (Alopecurus myosuroides [9]) | Pre-emergence action ECHCG (herbicidal activity in percent) (Echinochloa crus-galli [10])

CCc1cc(C)cc(C)c1C1=C(OC(C)=O)C2CCOCCN2C1=O (stereo not shown) [Ib-1-9]
100%: Pre-emergence action SETVI (herbicidal activity in percent) (Setaria viridis [1]) | Pre-emergence action ALOMY (herbicidal activity in percent) (Alopecurus myosuroides [2]) | Post-emergence effectiveness AVEFA (herbicidal action in percent) (Avena fatua [3]) | Post-emergence effectiveness SETVI (herbicidal action in percent) (Setaria viridis [4]) | Pre-emergence action LOLMU (herbicidal activity in percent) (Lolium multiflorum [5]) | Post-emergence effectiveness ECHCG (herbicidal action in percent) (Echinochloa crus-galli [6]) | Pre-emergence action AVEFA (herbicidal activity in percent) (Avena fatua [7]) | Post-emergence effectiveness LOLMU (herbicidal action in percent) (Lolium multiflorum [8]) | Post-emergence effectiveness ALOMY (herbicidal action in percent) (Alopecurus myosuroides [9]) | Pre-emergence action ECHCG (herbicidal activity in percent) (Echinochloa crus-galli [10])

Cc1cc(C)c(C2=C(OC(=O)C(C)(C)C)C3CCOCCN3C2=O)c(C)c1 (stereo not shown) [Ib-1-11]
100%: Pre-emergence action SETVI (herbicidal activity in percent) (Setaria viridis [1]) | Post-emergence effectiveness AVEFA (herbicidal action in percent) (Avena fatua [3]) | Post-emergence effectiveness SETVI (herbicidal action in percent) (Setaria viridis [4]) | Pre-emergence action LOLMU (herbicidal activity in percent) (Lolium multiflorum [5]) | Post-emergence effectiveness ECHCG (herbicidal action in percent) (Echinochloa crus-galli [6]) | Post-emergence effectiveness LOLMU (herbicidal action in percent) (Lolium multiflorum [8]) | Post-emergence effectiveness ALOMY (herbicidal action in percent) (Alopecurus myosuroides [9]) | Pre-emergence action ECHCG (herbicidal activity in percent) (Echinochloa crus-galli [10])
90%: Pre-emergence action ALOMY (herbicidal activity in percent) (Alopecurus myosuroides [2]) | Pre-emergence action AVEFA (herbicidal activity in percent) (Avena fatua [7])

CCOC(=O)OC1=C(c2c(C)cc(C)cc2C)C(=O)N2CCOCCC12 (stereo not shown) [Ib-1-10]
90%: Pre-emergence action AVEFA (herbicidal activity in percent) (Avena fatua [7])
80%: Pre-emergence action ALOMY (herbicidal activity in percent) (Alopecurus myosuroides [2])
100%: Pre-emergence action SETVI (herbicidal activity in percent) (Setaria viridis [1]) | Post-emergence effectiveness AVEFA (herbicidal action in percent) (Avena fatua [3]) | Post-emergence effectiveness SETVI (herbicidal action in percent) (Setaria viridis [4]) | Pre-emergence action LOLMU (herbicidal activity in percent) (Lolium multiflorum [5]) | Post-emergence effectiveness ECHCG (herbicidal action in percent) (Echinochloa crus-galli [6]) | Post-emergence effectiveness LOLMU (herbicidal action in percent) (Lolium multiflorum [8]) | Post-emergence effectiveness ALOMY (herbicidal action in percent) (Alopecurus myosuroides [9]) | Pre-emergence action ECHCG (herbicidal activity in percent) (Echinochloa crus-galli [10])

CCc1cc(C)cc(CC)c1C1=C(OC(C)=O)C2CCOCCN2C1=O (stereo not shown) [Ib-1-4]
100%: Pre-emergence action SETVI (herbicidal activity in percent) (Setaria viridis [1]) | Pre-emergence action ALOMY (herbicidal activity in percent) (Alopecurus myosuroides [2]) | Post-emergence effectiveness AVEFA (herbicidal action in percent) (Avena fatua [3]) | Post-emergence effectiveness SETVI (herbicidal action in percent) (Setaria viridis [4]) | Pre-emergence action LOLMU (herbicidal activity in percent) (Lolium multiflorum [5]) | Post-emergence effectiveness ECHCG (herbicidal action in percent) (Echinochloa crus-galli [6]) | Pre-emergence action AVEFA (herbicidal activity in percent) (Avena fatua [7]) | Post-emergence effectiveness LOLMU (herbicidal action in percent) (Lolium multiflorum [8]) | Post-emergence effectiveness ALOMY (herbicidal action in percent) (Alopecurus myosuroides [9]) | Pre-emergence action ECHCG (herbicidal activity in percent) (Echinochloa crus-galli [10])

CCOC(=O)OC1=C(c2c(C)cccc2CC)C(=O)N2CCOCCC12 (stereo not shown) [Ib-1-13]
90%: Post-emergence effectiveness AVEFA (herbicidal action in percent) (Avena fatua [3]) | Pre-emergence action AVEFA (herbicidal activity in percent) (Avena fatua [7])
80%: Pre-emergence action ALOMY (herbicidal activity in percent) (Alopecurus myosuroides [2])
100%: Pre-emergence action SETVI (herbicidal activity in percent) (Setaria viridis [1]) | Post-emergence effectiveness SETVI (herbicidal action in percent) (Setaria viridis [4]) | Pre-emergence action LOLMU (herbicidal activity in percent) (Lolium multiflorum [5]) | Post-emergence effectiveness ECHCG (herbicidal action in percent) (Echinochloa crus-galli [6]) | Post-emergence effectiveness LOLMU (herbicidal action in percent) (Lolium multiflorum [8]) | Post-emergence effectiveness ALOMY (herbicidal action in percent) (Alopecurus myosuroides [9]) | Pre-emergence action ECHCG (herbicidal activity in percent) (Echinochloa crus-galli [10])
